Values belong to the molecule of their own block, whether it stands above or below them. Where no end group is shown, it is not given here. [ ]: non-standard residue; d: D form. Compound III = 6,7,9,10-tetrahydro-2-carboxymethyl-14-sulphonato-16,16,18,18-tetramethyl-7aH,8aH-bisindolinium[3,2-a,3'2'-a']pyrano[3,2-c,5,6-c']dipyridin-5-ium dye (NHS ester used for labelling); {C7NH2-CompoundIII} = C7 amino linker labelled with Compound III NHS ester; pY = N[C@@H](Cc1ccc(OP(=O)(O)O)cc1)C(=O)O
How the values were obtained:
[1] = Comparison of spectral properties of rigidized Cy3 and open chain Cy3 dyes; assay type: physicochemical
Source text: The spectral properties of the rigidized dye were compared with the known open chain Cy3.18.OH and Cy3.10.OH dyes (FIG. 2). The absorption maxima of the rigid dye shifted to the red by 12 nm in methanol and as expected it is 10-12 time brighter that the non-rigidized indocyanines.

[2] = biological target: Grb2 glutathione-S-transferase fusion protein (Homo sapiens, UniProt P62993); experiment: Protein:peptide polarization binding assay; conditions: non-specific binding defined with 100 μM unlabelled peptide, 60 minutes
Experimental: A peptide of sequence E-pY-I-N-Q-S-V-P-K (E9K) was prepared by solid phase synthesis on an Applied Biosystems 431A peptide synthesizer using standard methods and materials. An excess of 6,7,9,10-tetrahydro-2-carboxymethyl-14-sulphonato-16,16,18,18-tetramethyl-7aH,8aH-bisindolinium[3,2-a;3′2′-a′]pyrano[3,2-c;5,6-c′]dipyridin-5-ium (Compound III), N-hydroxysuccinimide ester was coupled in DMSO in the presence of diisopropylethylamine to the free N-terminus of the protected peptide whilst still attached to the solid phase. After deprotection for two hours, the crude labelled peptide was purified by reverse phase HPLC, using a gradient from water/0.1%TFA to water:acetonitrile (40:60)/0.1%TFA over 60 minutes.
Various concentrations of Grb2 glutathione-S-transferase fusion protein and E9K labelled with Compound III in 20 mM MOPS pH7.4/10 mM DTT/005% Tween 20 were incubated in a final volume of 150 μl in black 96-well microplates (Dynatech) for 60 minutes. […] Polarization values were read on a Fluorolite FPM2™ plate reader (Jolley Research and Consulting Inc.) using a 530DF30 filter for excitation and 590DF45 filter for emission.

[3] = test system: complementary probe oligonucleotide; experiment: Nucleic acid FRET hybridization assay; assay type: binding; conditions: 560 nm excitation, 670 nm emission
Experimental: The oligonucleotides were deprotected for 17 hours at 40° C. and purified by reverse phase HPLC using a C18 column and a 40% TEAA/acetonitrile gradient. The desired peaks were collected, freeze dried and the samples were resuspended in sterile H2O.
Amino modified target and probe oligonucleotides were incubated with a 10-fold molar excess of 6,7,9,10-tetrahydro-2-carboxymethyl-14-sulphonato-16,16,18,18-tetramethyl-7aH,8aH-bisindolinium[3,2-a;3′2′-a′]pyrano[3,2-c;5,6-c′]dipyridin-5-ium (Compound III), N-hydroxysuccinimide ester and Cy5 NHS-ester dye (Amersham Pharmacia Biotech) respectively, in 0.1M sodium bicarbonate buffer (pH9), overnight at 22° C. The following morning, the oligonucleotides were ethanol precipitated and the resulting pellets were resuspended in H2O. […] Residues were resuspended into H2O and concentration of recovered material was determined.
Wells of a black, streptavidin coated 96-well plate were coated with either unlabelled or Compound III-labelled target oligonucleotides (20 pmol/well diluted in 100 μl PBS/1 MgCl2) for 120 minutes at ambient temperature. […] Finally, wells were washed vigorously with PBS and fluorescence intensity was measured on a fluorescence plate reader using a 560 nm excitation filter and a 670 nm emission filter (FIG. 7).

[4] = test system: NF-kB-specific double stranded (ds) DNA; experiment: Protein:DNA FRET binding assay; conditions: competitor 200 pmol/well (10 fold molar excess for p65), Ex520/Em670
Experimental: All HPLC purified NF-kB-specific oligonucleotides were obtained from Genosys Biotechnologies Ltd: a coding strand modified with a 5′ terminal primary amine (5′ NH2-[…] 3′) and an unmodified non-coding strand (5′ […] 3′). A 10-fold molar excess of Cy-5-NHS ester dye (Amersham Pharmacia Biotech) was incubated with the coding strand, in 0.1M sodium bicarbonate buffer (pH9), overnight at 22° C. The following morning the oligonucleotide was ethanol precipitated and then resuspended in water. The labelled coding strand was purified by reverse phase HPLC using a C18 column and a 60% TEAA/acetonitrile gradient. The peak containing labelled oligonucleotide was freeze dried and resuspended in water.
NF-kB-specific double stranded (ds) DNA was generated by incubating together equimolar amounts of the Cy-5 labelled coding strand (5′ Cy5-[…] […] 3′) and the unmodified non-coding strand (5′ […] […] 3′) in a boiling water bath for 3 minutes and allowing to anneal by cooling over 2 hours.
NF-kB p65 protein ([…]) was diluted to 1000 μl in 0.01M phosphate buffered saline. […]
A black microtitre plate (Dynatech) was used for the FRET assay. […] The plate was read at Ex520/Em670 in the Biolumin 960 fluorescence microplate reader (Molecular Dynamics Inc.).

NF-kB-specific dsDNA = experiment: Protein:DNA direct intensity binding assay; conditions: competitor 200 pmol/well (40 fold molar excess for p65) versus p65GST
Experimental: All HPLC purified oligonucleotides were obtained from Genosys Biotechnologies Ltd. Equimolar amounts of a biotinylated coding strand (5′ Biotin-[…] CCGCG 3′) and an unmodified non-coding strand (5′ […] 3′) specific for NF-kB were incubated together in a boiling water bath for 3 minutes and allowed to anneal by cooling over 2 hours.
Anti-GST antibody (3 mg/ml, 1.5 mg supplied/vial (0.5 ml) from Molecular Probes) was dialysed against 1 litre of 0.15M sodium chloride for 4 hours at room temperature and dialysis was continued overnight at 4° C. in a fresh solution of 0.15M sodium chloride. The following morning the antibody was dialysed against 1 litre of 0.1M sodium hydrogen carbonate for a maximum of 4 hours.
A 1 mg/ml solution of 6,7,9,10-tetrahydro-2-carboxymethyl-14-sulphonato-16,16,18,18-tetramethyl-7aH,8aH-bisindolinium[3,2-a;3′2′-a′]pyrano[3,2-c;5,6-c′]dipyridin-5-ium (Compound III), N-hydroxysuccinimide ester in DMSO was added gradually with stirring to the antibody at a ratio of 0.10 mg dye: 0.33 mg antibody. […]
Biotin-labelled NF-kB-specific dsDNA (2.5 pmol, diluted in 0.01 MMgCl2) was added to each well (final volume, 100 μl) of a 96-well streptavidin coated microplate (Boehringer Mannheim) and incubated at room temperature for 2 hours. […] The plate was read at Ex535/Em569 and Ex560/595 in the Biolumin 960 fluorescence microplate reader (Molecular Dynamics Inc.).

Molecule: CC1(C)C2=C3C=C4C5=[N+](CCC4OC3CCN2c2ccc(CC(=O)O)cc21)c1ccc(CC(=O)O)cc1C5(C)C (centres unmarked) [Compound I, 6,7,9,10-Tetrahydro-2,14-carboxymethyl-16,16,18,18-tetramethyl-7aH,8aH-bisindolinium[3,2-a;3′2′-a′]pyrano[3,2-c;5,6-c′]dipyridin-5-ium]
QY (Φ) ([1]; dye in methanol): 0.8
λmax ([1]; dye in methanol): 565
absorption maxima shifted to the red ([1]; in methanol, versus open chain Cy3 dyes): 12 nm
brightness relative to the non-rigidized indocyanines ([1]; versus non-rigidized indocyanines): 10-12 time

Molecule: Compound III-labelled peptide: peptide E-pY-I-N-Q-S-V-P-K (E9K) labelled at the free N-terminus with Compound III ({Compound III}-E[pY]INQSVPK)
binding to Grb2 protein as determined by change in polarization [2]: specific binding

Molecule: Compound III-labelled target oligonucleotide: 5′ C7 amino-modified TAC CCA GAC GAG CAA-biotin 3′ labelled with Compound III NHS ester (DNA TACCCAGACGAGCAA; DNA, 5' {C7NH2-CompoundIII}, 3' {Biotin}, backbone not given here)
fluorescence signal (FRET) ([3]; incubated with Cy5-labelled probe): strong fluorescence signal
fluorescence signal (FRET) ([3]; incubated with unlabelled probe): low fluorescence signals

Continued, values first:

reduction of the total signal [4]: no effect
reduction of the total signal (NF-kB-specific dsDNA): 25%
Molecule: casein

reduction of the total signal [4]: 40%
reduction of the total signal (NF-kB-specific dsDNA): approximately 90%
Molecule: p65: NF-kB p65 protein, specific competitor
